# Marks after values point to notes of the source that are not given here.
# Tests used:
# SHR [1] = experiment: Hypotensive activity in SHR by single administration of test compound (tail-cuff method); assay type: in vivo, rats; conditions: SHR about 40 weeks old, fasted overnight; for rate of change of the blood pressure: 200 mg/kg orally, single dose, 2 hours after administration against before administration; for decrease of the systolic blood pressure: 200 mg/kg orally once, 2 hours after administration in comparison with before administration
# Experimental: The phenoxyacetic acid derivatives (I) and pharmaceutically acceptable salts thereof, which are the active ingredient for use in the preparation of the hypotensive agent have an excellent hypotensive activity.
# A suspension of a test compound in water containing a small amount of Tween 80 was administered orally in a volume of 1 ml/100 g of rat's weight (a dose of the test compound: 200 mg/kg) to SHR (about 40 weeks old, 4 to 6 rats/group) fasted overnight. The blood pressure before and after administration of the test compound were measured noninvasively by the tail-cuff method, and estimated the rate of the change of the blood pressure 2 hours after administration of the test compound against the blood pressure before administration of the test compound. In both of test compound No. (1) and No. (2), the rate of change of the blood pressure was about -13 %.
# DOCA-salt rats = experiment: Antihypertensive activity on progressive hypertension in DOCA-salt rats (tail-cuff method); assay type: in vivo, male SD rats; conditions: for Systolic blood pressure: 50 mg/kg/day orally once a day for 4 weeks
# Experimental: (§1) A left kidney was taken out from male SD rats (6 weeks old, weight; about 200 g, 10 rats/group), and 1 week later, silicon resin containing 150 mg/kg of deoxycorticosterone acetic acid (DOCA) was embedded in subcutaneous tissue at the back of each rat under ether anesthesia. After operation, the rats were provided with water containing 1 % sodium chloride and 0.2 % potassium chloride as drinking water in order to produce DOCA-salt rats. From the next day after operation of embedding the silicon resin containing DOCA, a suspension of the test compound (I) in water containing a small amount of Tween 80 was administered orally in a volume of 10 ml/kg (a dose of the test compound: 50 mg/kg/day) once a day for 4 weeks in the test compound-administered group. On the other hand, the same amount of water containing a small amount of the Tween 80 was administered in the control group instead of the suspension of the test compound (1). The systolic blood pressure of rats in the both groups was measured once a week until the fourth week by the tail-cuff method.
# SHR [2] = experiment: Antihypertensive activity in SHR, repeated administration (tail-cuff method); assay type: in vivo, rats; conditions: for Systolic blood pressure: SHR 5 weeks old
# Experimental: (§2) A suspension of the test compound (1) in water containing a small amount of Tween 80 was administered orally in a volume of 10 ml/kg (a dose of the test compound: 100 mg/kg/day) once a day for 4 weeks to SHR (5 weeks old, weight; about 100 g, 10 rats/group) in the test compound-administered group. On the other hand, the same amount of water containing a small amount of Tween 80 was administered to the rats in control group instead of the suspension of the test compound (1). The systolic blood pressure of rats of the both groups was measured once a week until the fifth week by the tail-cuff method.
# established-SHR = experiment: Antihypertensive activity in SHR in the established hypertension condition (tail-cuff method); assay type: in vivo, rats; conditions: for Systolic blood pressure: 100 mg/kg/day orally once a day for 3 weeks, established-SHR 18 weeks old
# Experimental: as §2
# Using the SHR being in the established hypertension (established-SHR, 18 weeks old, weight; 300 to 375 g, 8 rats/group), the same procedures were carried out as Experiment 3 except that the period of administration of the test compound (1) was 3 weeks, and the systolic blood pressure was measured until the third week after administration.
# [3] = system: established DOCA-salt hypertensive rats; experiment: Antihypertensive activity in DOCA-salt rats in the established hypertension condition (tail-cuff method); assay type: in vivo
# Experimental: as §1, §2
# The DOCA-salt loaded rats being in the stable hypertensive condition were obtained by feeding the DOCA-salt loaded rats used in Experiment 2 with tap water instead of aqueous salt solution for 6 weeks. Using these established DOCA-salt hypertensive rats (8 rats/group), the same experiments were carried out as Experiment 3 except that the dose of the test compound (1) was 50 mg/kg/day, the period of administration was 3 weeks, and the systolic blood pressure was measured until the fourth week after administration.
structure (smiles),measurement,setting,value
"CCn1nccc1C(=O)c1ccc(OCC(=O)O)c(Cl)c1Cl [(1), [2,3-dichloro-4-(1-ethyl-5-pyrazolylcarbonyl)phenoxy]acetic acid]",rate of change of the blood pressure,SHR [1],about -13%
same,increase of blood pressure as compared with control group,"DOCA-salt rats; 50 mg/kg/day orally for 4 weeks, result in words",inhibited significantly from the second week after administration
same,Systolic blood pressure,DOCA-salt rats; day 0,121.6 mmHg
same,Systolic blood pressure,DOCA-salt rats; day 7,140.3 mmHg
same,Systolic blood pressure,DOCA-salt rats; day 14,165.0* mmHg
same,Systolic blood pressure,DOCA-salt rats; day 21,182.0* mmHg
same,Systolic blood pressure,DOCA-salt rats; day 28,193.3* mmHg
same,increase of blood pressure as compared with control group,"SHR [2]; 100 mg/kg/day orally for 4 weeks, result in words",inhibited significantly from the first week after administration
same,Systolic blood pressure,"SHR [2]; day 0, 100 mg/kg/day orally once a day for 4 weeks",131.2 mmHg
same,Systolic blood pressure,"SHR [2]; day 7, 100 mg/kg/day orally once a day for 4 weeks",141.0** mmHg
same,Systolic blood pressure,"SHR [2]; day 14, 100 mg/kg/day orally once a day for 4 weeks",161.9** mmHg
same,Systolic blood pressure,"SHR [2]; day 21, 100 mg/kg/day orally once a day for 4 weeks",175.4** mmHg
same,Systolic blood pressure,"SHR [2]; day 28, 100 mg/kg/day orally once a day for 4 weeks",185.2** mmHg
same,Systolic blood pressure,"SHR [2]; day 35 (one week after the 4-week dosing), 100 mg/kg/day orally",198.4** mmHg
same,blood pressure in comparison with control group,"established-SHR; 100 mg/kg/day orally for 3 weeks, result in words",decreased significantly from the first week after administration
same,Systolic blood pressure,established-SHR; day 0,207.3 mmHg
same,Systolic blood pressure,established-SHR; day 7,189.6* mmHg
same,Systolic blood pressure,established-SHR; day 14,201.8* mmHg
same,Systolic blood pressure,established-SHR; day 21,198.6* mmHg
same,blood pressure in comparison with control group,"[3]; 50 mg/kg/day orally for 3 weeks, result in words",decreased significantly from the second week after administration
same,Systolic blood pressure,"[3]; day 0, 50 mg/kg/day orally once a day for 3 weeks",171.1 mmHg
same,Systolic blood pressure,"[3]; day 7, 50 mg/kg/day orally once a day for 3 weeks",167.4 mmHg
same,Systolic blood pressure,"[3]; day 14, 50 mg/kg/day orally once a day for 3 weeks",168.1* mmHg
same,Systolic blood pressure,"[3]; day 28 (one week after the 3-week dosing), 50 mg/kg/day orally",170.7* mmHg
"CCOCn1nccc1C(=O)c1ccc(OCC(=O)O)c(Cl)c1Cl [(2), [2,3-dichloro-4-(1-ethoxymethyl-5-pyrazolylcarbonyl)phenoxy]acetic acid]",rate of change of the blood pressure,SHR [1],about -13%
"CCn1nccc1C(=O)c1ccc(OCC(=O)O)c(Cl)c1Cl [[2,3-dichloro-4(1-ethyl-5-pyrazolylcarbonyl)phenoxy]acetic acid]",decrease of the systolic blood pressure,SHR [1],about 13%
"CCOCn1nccc1C(=O)c1ccc(OCC(=O)O)c(Cl)c1Cl [[2,3-dichloro-4-(1-ethoxymethyl-5-pyrazolylcarbonyl)phenoxy]acetic acid]",decrease of the systolic blood pressure,SHR [1],about 13%

# From patent EP0414931B1, “Hypotensive agent” (TANABE SEIYAKU CO., LTD., priority 1989, dated 1991)
